The source of these data is ChEMBL document CHEMBL1201862, “PubChem BioAssay data set” (2004).

Test systems include HOP-62; MCF7; UACC-257; LOX IMVI; KM12; MDA-N; MDA-MB-231; ACHN; PC-3; Malme-3M; OVCAR-5; COLO 205; K562; SR; SK-MEL-2.
Holding throughout (test): NCI-60 cell line screen, 48 h

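How tested: cells in 96-well plates exposed to compound for 48 hours at five concentrations. Here, GI50 denotes the concentration required for 50% inhibition of growth.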 Active and inactive are the calls of the source. Rule as the data show it: active = GI50 up to about 1.1 µM and inactive = higher. Starred links: 1 amine or outer side, 2 acyl side, 3 side chain; linkers in the order of their positions; H or OH if unused. Non-standard residues stand in square brackets, D forms with d. Residues, ends and D or L forms follow the SMILES beside them. X4 = C[C@H](N[*:1])C(=O)C(C)(C)C(=O)[*:2]; Hmpa(2S,3S) = CC[C@H](C)[C@H](O)C(=O)O; NMeY = CN[C@@H](Cc1ccc(O)cc1)C(=O)O; NMeL = CN[C@@H](CC(C)C)C(=O)O; NMeV = CN[C@H](C(=O)O)C(C)C; βAla = NCCC(=O)O

With `C=C(Cl)[C@](Cl)(CBr)CC[C@@H](Br)C(C)(C)Cl` [HALOMON], the GI50 in the assay on HOP-62 was 0.23 µM (active); in the assay with MCF7 it was 0.822 µM (active); in the assay on UACC-257, 1.4 µM (inactive); in the assay on LOX IMVI it was 17.7 µM (inactive); with KM12, 0.927 µM (active); with MDA-N it was 0.959 µM (active). Moreover, the GI50 in the assay with MDA-MB-231 was 1.16 µM (inactive); in the assay with ACHN, 1.01 µM (active); in the assay on PC-3, 0.319 µM (active); in the assay on Malme-3M it was 11.5 µM (inactive); in the assay with OVCAR-5 it was 1.56 µM (inactive); in the assay on COLO 205 it was 1.84 µM (inactive). For the same molecule, the GI50 in the assay on K562 was 0.916 µM (active); with SR it was 7.21 µM (inactive).

Consider `CCOP(=O)(OCC)C(c1ccc(F)cc1)N(C(=O)NC(F)(F)F)c1cccc(C(F)(F)F)c1` (stereo unspecified), for which the GI50 in the assay on HOP-62, in the assay with MCF7, in the assay on UACC-257, with LOX IMVI, in the assay on KM12 and in the assay with MDA-N was > 100 µM (inactive) throughout. Further, the GI50 in the assay with SK-MEL-2, in the assay with MDA-MB-231, in the assay with ACHN, in the assay with PC-3, with Malme-3M and with OVCAR-5 was > 100 µM (inactive) each time. The GI50 in the assay on COLO 205 is > 100 µM (inactive); in the assay with K562, 50.2 µM (inactive); in the assay on SR, 75.3 µM (inactive).

On to `CN1C(=O)c2ccccc2NC(=O)C12O[C@@H]2c1cccc(O)c1` (stereo partly specified), for which the GI50 in the assay with HOP-62, in the assay with MCF7, with UACC-257, with LOX IMVI, in the assay with KM12 and in the assay with MDA-N was > 100 µM (inactive) each time. In addition, the GI50 was > 100 µM (inactive) with SK-MEL-2; > 100 µM (inactive) in the assay with MDA-MB-231; > 100 µM (inactive) in the assay with ACHN; > 100 µM (inactive) with PC-3; > 100 µM (inactive) in the assay on Malme-3M; 95.9 µM (inactive) with OVCAR-5. The GI50 in the assay on COLO 205 and with SR was > 100 µM (inactive) throughout.

As to `[N-]=[N+]=CC(=O)OC1Cc2ccccc2C1`, the GI50 was > 66.8 µM (inactive) in the assay with HOP-62; > 100 µM (inactive) with MCF7; > 100 µM (inactive) with UACC-257; > 100 µM (inactive) with LOX IMVI; > 100 µM (inactive) with KM12; > 100 µM (inactive) in the assay on MDA-N. The GI50 was > 100 µM (inactive) with SK-MEL-2; > 100 µM (inactive) with MDA-MB-231; 27.7 µM (inactive) with ACHN; > 95.7 µM (inactive) with PC-3; > 100 µM (inactive) in the assay on Malme-3M; 73.1 µM (inactive) in the assay with OVCAR-5. Also, the GI50 with COLO 205 was > 72.6 µM (inactive); in the assay with K562, > 100 µM (inactive); in the assay with SR, > 100 µM (inactive).

As for `[N-]=[N+]=Nc1ccccc1C(=O)N1C(=O)c2ccccc2C(=O)N(C(=O)c2ccccc2N=[N+]=[N-])c2ccccc21`, the GI50 with HOP-62 is 21.6 µM (inactive); with MCF7 it was 52.2 µM (inactive); in the assay with UACC-257 it was 82.4 µM (inactive); in the assay with LOX IMVI it was 19.8 µM (inactive); in the assay with KM12, 57.8 µM (inactive); with MDA-N, 59.3 µM (inactive). The GI50 was 37.9 µM (inactive) in the assay with SK-MEL-2; 52.8 µM (inactive) in the assay with MDA-MB-231; 45.1 µM (inactive) in the assay on ACHN; 21.4 µM (inactive) with PC-3; > 100 µM (inactive) in the assay on Malme-3M; > 100 µM (inactive) in the assay with OVCAR-5. The results for the GI50 in the assay with COLO 205, with K562 and in the assay on SR were 34.1 µM (inactive), 30.3 µM (inactive) and 38.8 µM (inactive), respectively.

Consider `CN(C)c1ccc(/C=C/c2nc3ccccc3s2)cc1`, for which the GI50 with HOP-62, with MCF7, with UACC-257, with LOX IMVI, in the assay with KM12 and in the assay on MDA-N was > 100 µM (inactive) in each case. The GI50 with SK-MEL-2, in the assay with MDA-MB-231, in the assay with ACHN, in the assay with PC-3, with Malme-3M and in the assay with OVCAR-5 was > 100 µM (inactive) in each case. Also, the GI50 with COLO 205, with K562 and in the assay on SR was > 100 µM (inactive) in each case.

Regarding `CS(=O)(=O)O[C@H]1[C@H](O)c2ccccc2[C@@H]1N=[N+]=[N-]`, the GI50 in the assay on HOP-62, in the assay on MCF7, in the assay on UACC-257, with LOX IMVI, with KM12 and with MDA-N was > 100 µM (inactive) each time. Also, the GI50 in the assay on SK-MEL-2, in the assay on MDA-MB-231, in the assay on ACHN, with PC-3, in the assay on Malme-3M and in the assay with OVCAR-5 was > 100 µM (inactive) throughout. For the same molecule, the GI50 in the assay with COLO 205, in the assay on K562 and in the assay on SR was > 100 µM (inactive) each time.

Regarding `COC(=O)c1cc2c(c3c1CC(Cc1ccccc1)C3=O)CCC2` (stereo unspecified), the GI50 in the assay with HOP-62 was 99.3 µM (inactive); in the assay with MCF7, 69.7 µM (inactive); in the assay on UACC-257, > 100 µM (inactive); with LOX IMVI, 45.9 µM (inactive); in the assay with KM12, 18.4 µM (inactive); with MDA-N, > 100 µM (inactive). The GI50 is 62.2 µM (inactive) with MDA-MB-231; 84.3 µM (inactive) in the assay with ACHN; > 100 µM (inactive) in the assay with PC-3; 54.1 µM (inactive) in the assay on Malme-3M; > 100 µM (inactive) in the assay on OVCAR-5; > 100 µM (inactive) with COLO 205. In addition, the GI50 with K562 is 38.1 µM (inactive); in the assay with SR, > 100 µM (inactive).

`Cc1nc2ccccc2c(=O)n1NC(=O)c1ccc([N+](=O)[O-])cc1`: the GI50 in the assay with HOP-62, with MCF7, in the assay with UACC-257, in the assay with LOX IMVI, in the assay with KM12 and in the assay with MDA-N was > 100 µM (inactive) each time. In addition, the GI50 with MDA-MB-231, in the assay with ACHN, in the assay with PC-3, in the assay on Malme-3M, in the assay on OVCAR-5 and in the assay with COLO 205 was > 100 µM (inactive) in each case. Moreover, the GI50 in the assay with K562 and with SR was > 100 µM (inactive) throughout.

For `COc1cc(C(=O)Oc2c(C#N)sc3c2c(=O)n(-c2ccccc2)c(=S)n3-c2ccccc2)cc(OC)c1OC`, the GI50 in the assay with HOP-62 was 19.5 µM (inactive); in the assay on MCF7, 22.9 µM (inactive); in the assay on UACC-257 it was 35.2 µM (inactive); in the assay on LOX IMVI, 19.9 µM (inactive); in the assay with KM12, 18.9 µM (inactive); in the assay with MDA-N, 20.2 µM (inactive). The GI50 with MDA-MB-231 was 20.8 µM (inactive); in the assay on ACHN, 8.87 µM (inactive); with PC-3 it was 17.1 µM (inactive); with Malme-3M, 9.14 µM (inactive); with OVCAR-5, 17.6 µM (inactive); in the assay on COLO 205 it was 15.8 µM (inactive). Besides, the GI50 was 23.5 µM (inactive) in the assay on K562 and > 100 µM (inactive) in the assay with SR.

With `O=C(CN1CCOCC1)CC(O)(C(F)(F)F)C(F)(F)F`, the GI50 with MCF7 was > 100 µM (inactive); in the assay with UACC-257, > 100 µM (inactive); in the assay on LOX IMVI, 46 µM (inactive); in the assay on KM12, 77.8 µM (inactive); in the assay on MDA-N, > 100 µM (inactive); in the assay on SK-MEL-2, 97.3 µM (inactive). Besides, the GI50 with MDA-MB-231 was > 100 µM (inactive); with ACHN, 92.5 µM (inactive); in the assay with PC-3, 32.1 µM (inactive); in the assay with Malme-3M it was > 100 µM (inactive); with OVCAR-5, > 100 µM (inactive); with COLO 205, > 100 µM (inactive). Moreover, the GI50 is 55.1 µM (inactive) with K562 and 79.4 µM (inactive) with SR.

With `CC[C@H](C)[C@@H]1OC(=O)CCNC(=O)[C@@H](C)NC(=O)C(C)(C)C(=O)[C@H](C)NC(=O)[C@H](Cc2ccc(OC)cc2)N(C)C(=O)[C@H](C(C)C)N(C)C(=O)CNC(=O)[C@H](CC(C)C)N(C)C(=O)CNC1=O` (cyclo(G[NMeL]G[NMeV][NMeY](Me)[X4][dA][βAla][Hmpa(2S,3S)])), the GI50 in the assay with HOP-62 was 0.962 µM (active); with MCF7, 0.387 µM (active); with UACC-257, 0.218 µM (active); in the assay on LOX IMVI, 0.175 µM (active); in the assay on MDA-N, 0.299 µM (active); with SK-MEL-2 it was 0.222 µM (active). Moreover, the GI50 in the assay with MDA-MB-231 is 0.476 µM (active); in the assay with ACHN, 3.1 µM (inactive); with PC-3 it was 0.31 µM (active); in the assay on Malme-3M it was 0.217 µM (active); in the assay on OVCAR-5, 0.724 µM (active); in the assay with COLO 205, 0.0252 µM (active). Besides, the GI50 in the assay with K562 was 0.0389 µM (active); in the assay with SR, 0.337 µM (active).

`CC1C2CC(C/C2=N/O)C1(C)C` (stereo unspecified): the GI50 in the assay on HOP-62, with MCF7, in the assay with UACC-257, with KM12, in the assay with MDA-N and with MDA-MB-231 was > 100 µM (inactive) each time. Besides, the GI50 in the assay with ACHN, in the assay with PC-3, with Malme-3M, with OVCAR-5, in the assay with COLO 205 and in the assay with K562 was > 100 µM (inactive) throughout. Also, in the assay with SR, the GI50 was > 100 µM (inactive).
